# From US11174303B2, “Single-chain insulin analogues stabilized by a fourth disulfide bridge” (Case Western Reserve University, priority 2017, dated 2021)
# Positions of bridges follow the written chain, without caps; N, C: chain ends. No end group written: not given here.
# How the values were obtained:
# [1] = biological target: A isoform of the insulin receptor (Homo sapiens, UniProt P06213); type: binding
# Experimental: The receptor binding affinity of analogue 81-04 and analogue 4SS 81-04 was also determined. The affinity of 4SS 81-04 for the A isoform of the insulin receptor was determined to be 120±20 percent relative to human insulin (and may in fact be the same as wild type human insulin given the error present; data not shown). […] Such impaired binding to IGF-1R is desirable from the perspective of potential carcinogenesis on long-term use.
# [2] = in vivo
# [3] = tested on: Sprague-Dawley rats made diabetic with streptozotocin; assay: Stability under extreme conditions (95° C. for 30 min, gentle agitation), read out as glucose lowering after IV bolus in diabetic rats; type: in vivo, rat
# Experimental: Heat stressed insulin was given gentle agitation at 95° C. for 30 min. Doses for SCIs (nominally 1 IU/rat IV) were calculated in equivalent nanomoles protein/μl.
# FIG. 3C is a graph of mean blood-glucose concentrations over time in Sprague-Dawley rats made diabetic with streptozotocin after IV bolus injection of fresh or heat-stressed SCIs on gentle agitation at 95° C. for 30 min (N=4; mean glycemia ca. 400 mg/dl). Symbol code: (filled triangle, ▴) fresh SCI-1; (open triangle, ? ) heated SCI-1; (filled square, ? ) fresh insulin lispro as positive control and (filled circle, ? ) Lilly diluent (i.e., buffer only) as negative control. Doses for SCIs (nominally 1 IU/rat IV) were calculated in equivalent nanomoles protein/μl.
# FIG. 3D is a graph of the change in blood-glucose concentrations normalized to initial blood glucose concentration over time in Sprague-Dawley rats made diabetic with streptozotocin after IV bolus injection of fresh or heat-stressed SCIs on gentle agitation at 95° C. for 30 min (N=4; mean glycemia ca. 400 mg/dl). Symbol code: (filled triangle, ▴) fresh SCI-1; (open triangle, ? ) heated SCI-1; (filled square, ? ) fresh insulin lispro as positive control; and (filled circle, ? ) Lilly diluent (i.e., buffer only) as negative control. Doses for SCIs (nominally 1 IU/rat IV) were calculated in equivalent nanomoles protein/μl.
# To evaluate the biological activity, potency, duration of signaling, and thermal stability of the analogues in an animal model, male Sprague-Dawley rats (mean body mass ˜300 grams) were rendered diabetic by treatment with streptozotocin (STZ). […] A control was provided by injection of protein-free Lilly diluent (obtained from Eli Lilly and Co.) composed of 16 mg glycerin, 1.6 mg meta-cresol, 0.65 mg phenol, and 3.8 mg sodium phosphate pH 7.4. The activity of SCI-1 was evaluated in relation to that of Humalog® (U-100 strength taken from an unexpired commercial vial). […] Blood was obtained from the clipped tip of the tail at time 0 and every 10 minutes up to 360 min. […]
# Sequence of A isoform of the insulin receptor (P06213 28-746 isoform P06213-2 limits assumed): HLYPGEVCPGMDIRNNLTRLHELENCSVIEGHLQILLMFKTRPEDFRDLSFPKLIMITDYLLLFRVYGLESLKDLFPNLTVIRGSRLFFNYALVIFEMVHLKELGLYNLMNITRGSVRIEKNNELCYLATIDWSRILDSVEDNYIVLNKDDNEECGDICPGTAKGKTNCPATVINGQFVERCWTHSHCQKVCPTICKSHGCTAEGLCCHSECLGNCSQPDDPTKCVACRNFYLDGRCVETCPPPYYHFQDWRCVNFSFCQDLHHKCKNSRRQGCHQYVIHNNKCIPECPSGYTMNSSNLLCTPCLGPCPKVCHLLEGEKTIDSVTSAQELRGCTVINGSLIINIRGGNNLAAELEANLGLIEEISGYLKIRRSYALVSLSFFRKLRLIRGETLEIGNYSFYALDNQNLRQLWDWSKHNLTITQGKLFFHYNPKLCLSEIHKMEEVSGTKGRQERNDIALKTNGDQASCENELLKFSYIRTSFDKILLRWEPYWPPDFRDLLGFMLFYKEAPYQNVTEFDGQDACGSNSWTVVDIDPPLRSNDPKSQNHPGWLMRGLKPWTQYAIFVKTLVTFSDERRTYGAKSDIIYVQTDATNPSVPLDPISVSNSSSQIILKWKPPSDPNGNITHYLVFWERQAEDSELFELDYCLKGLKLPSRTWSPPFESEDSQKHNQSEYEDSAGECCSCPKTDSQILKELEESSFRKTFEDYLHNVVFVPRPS
# Sequence of A isoform of the insulin receptor (P06213 763-1382 partner limits assumed): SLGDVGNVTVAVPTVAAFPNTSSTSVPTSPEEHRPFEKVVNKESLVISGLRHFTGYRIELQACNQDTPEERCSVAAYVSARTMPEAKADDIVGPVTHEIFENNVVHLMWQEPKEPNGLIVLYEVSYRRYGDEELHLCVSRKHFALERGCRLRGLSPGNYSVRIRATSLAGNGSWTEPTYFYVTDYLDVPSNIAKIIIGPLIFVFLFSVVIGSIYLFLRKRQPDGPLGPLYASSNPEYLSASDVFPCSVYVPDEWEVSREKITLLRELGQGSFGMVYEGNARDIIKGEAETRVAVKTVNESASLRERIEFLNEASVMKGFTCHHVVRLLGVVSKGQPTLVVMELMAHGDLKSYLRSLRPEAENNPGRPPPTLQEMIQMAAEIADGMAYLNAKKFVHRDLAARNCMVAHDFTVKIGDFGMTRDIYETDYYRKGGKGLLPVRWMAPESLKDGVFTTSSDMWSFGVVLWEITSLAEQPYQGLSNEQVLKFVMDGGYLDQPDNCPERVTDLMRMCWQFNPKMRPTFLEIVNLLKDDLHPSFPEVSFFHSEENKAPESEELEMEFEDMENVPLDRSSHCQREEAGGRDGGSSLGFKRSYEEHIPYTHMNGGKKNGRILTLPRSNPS
substance,measurement,setting,value
"FVNCHLCGSHLVEALYLVCGERGFFYTDPTEEGPRRGIVEQCCHSCCSLEQLENYCN (disulfide 4-46, 7-43, 19-56, 42-47) [SCI-2]",affinity for the A isoform of the insulin receptor relative to human insulin,[1],120±20%
"FVNCHLCGSHLVEALYLVCGERGFFYTPRTEEGSRRSRGIVEQCCRSCCSLYQLENYCN (disulfide 4-48, 7-45, 19-58, 44-49) [SCI-1]",PK on conventional SQ injection,[2],prolonged PK
"SCI-1 without 4SS: Preliminary version of SCI-1 lacking the 4th disulfide bridge, with Gln at position B4 and Ile at position A10 (FVNQHLCGSHLVEALYLVCGERGFFYTDPTEEGPRRGIVEQCCHSICSLEQLENYCN; disulfide (positions not given here); ends not checked)",decrement in activity of heated versus fresh sample at 240 min,"[3]; 95° C. for 30 min, time point 240 min",ca. 25%
same,decrement in activity of heated versus fresh sample at 300 min,"[3]; 95° C. for 30 min, time point 300 min",~40%
same,activity after 30 min at 95° C. versus fresh sample,"[3]; heat-stressed with gentle agitation at 95° C. for 30 min, nominally 1 IU/rat, N=4",largely (but incompletely) maintained
